Assay results from patent US20070207112A1, “Anti-acne composition” (GRANT INDUSTRIES, INC., priority 2006, published 2007).
Residues, ends and D or L forms follow the SMILES beside them.

What was measured:
P. acnes [1] = type: cell-based; conditions: salicylate 0.08% to 5%
Excerpt: In-Vitro testing for the synergetic inhibitory effects of Compound A and salicylic acid on the growth of P. acnes.
The objective of this experiment was to establish the minimal inhibitory concentration (MIC) of the peptide (Compound A) towards the bacterium P. acnes, in the presence of a range of concentrations of sodium salt of salicylic acid. MIC is defined as the lowest concentration of an active material resulting in lack of microbial growth. P. acnes (BD, cat. #237038, batch #6152097) was inoculated at 3 different dilutions and grown on blood agar plates for one week in anaerobic condition at 37 deg. C. Bacteria were then inoculated in thioglycollate broth in a 96 well plate, at the density equal to 0.5 McFarland standard in the presence of peptide (Compound A) concentrations ranging from 0.25 ug/ml to 32 ug/ml and salicylate concentrations ranging from 0.08% to 5% (checker method). MIC was determined visually and confirmed by spectrophotometry at 490 nm and 590 nm on the BioRad 3550-UV microplate reader.

P. acnes [2] = conditions: cited from earlier work

Compound | Effect of added sodium salicylate on antimicrobial activity of the peptide (P. acnes [1]) | MIC against P. acnes (in words) (P. acnes [2]; in-vitro, reported in earlier filings) | Antibacterial activity against P. acnes (P. acnes [2]; U.S. Pat. No. 4,520,133)
CC(C)C[C@H](NC(=O)[C@H](C)NC(=O)[C@H](CCCCN)NC(=O)[C@H](CC(C)C)NC(=O)[C@H](C)NC(=O)[C@H](CCCCN)NC(=O)[C@H](CC(C)C)NC(=O)[C@H](CC(C)C)NC(=O)[C@H](C)NC(=O)[C@H](CCCCN)NC(=O)[C@H](CC(C)C)NC(=O)[C@H](C)NC(=O)[C@H](CCCCN)NC(=O)[C@H](C)NC(=O)[C@@H](N)Cc1ccccc1)C(N)=O [Compound A, FAKALKALLKALKAL-NH2] (H-FAKALKALLKALKAL-NH2; N-terminus assumed) | strongly enhance its antimicrobial activity | low in-vitro minimum inhibitory concentration (MIC) against P. acnes | –
O=C(O)c1ccccc1O [salicylic acid, reference compound] | – | – | does not posses any antibacterial activity against P. acnes
